Assay [1] has as its system L2 mutant (U28A, A29U, G31C, G32C), vector P2-P3 (L2-L3) (RNA, riboswitch, 5-aminoallyl-U at the two dye sites (underlined positions not given)) GCGCGAGCGUUGUAUAAUCCUAAUGAAUUCCUUUGGGAGUUUCUACCAAGAGCCUUAAACUCUUGAUUACAACGCUCGCGC
The assay can be described thus: smFRET. To be noted: 10 mM Tris-HCl pH 8.0.

The test system of assay [2] is wild-type add aptamer, vector P2-P3 (L2-L3) (RNA, riboswitch, 5-aminoallyl-U at the two dye sites (underlined positions not given)) GCGCGAGCGUUGUAUAAUCCUAAUGAUAUGGUUUGGGAGUUUCUACCAAGAGCCUUAAACUCUUGAUUACAACGCUCGCGC
As to the kind of experiment: smFRET.

Assay [3] relates to wild-type add aptamer, vector P1-P2 (RNA, riboswitch, 5-aminoallyl-U at the two dye sites (underlined positions not given)) GCGCGAGCGUUGUAUAAUCCUAAUGAUAUGGUUUGGGAGUUUCUACCAAGAGCCUUAAACUCUUGAUUACAAUGCUCGCGC
The assay can be described thus: smFRET. To be noted: 10 mM NaCl, 10 mM MgCl2; 10 mM Tris-HCl pH 8.0; 1 mM DAP.

For assay [4], the system named is L2 mutant, vector P1-P2 (RNA, riboswitch, 5-aminoallyl-U at the two dye sites (underlined positions not given)) GCGCGAGCGUUGUAUAAUCCUAAUGAAUUCCUUUGGGAGUUUCUACCAAGAGCCUUAAACUCUUGAUUACAAUGCUCGCGC
As to the kind of experiment: smFRET. The following applies: 10 mM NaCl, 10 mM MgCl2; 10 mM Tris-HCl pH 8.0; 1 mM DAP.

In assay [5] the test system is L2 mutant, vector P1-P3 (RNA, riboswitch, 5-aminoallyl-U at the two dye sites (underlined positions not given)) GCGCGAGCGUUGUAUAAUCCUAAUGAAUUCCUUUGGGAGUUUCUACCAAGAGCCUUAAACUCUUGAUUACAACGCUCGCGC
The assay can be described thus: smFRET. To be noted: 10 mM NaCl, 10 mM MgCl2; 10 mM Tris-HCl pH 8.0; 1 mM DAP.

The subject of assay [6] is wild-type add aptamer, vector J2/3-P1 (core-P1) (RNA, riboswitch, 5-aminoallyl-U at residue 42 (aptamer numbering) and at a P1 site (position not visible)) GCGCGAGCGUUGUAUAAUCCUAAUGAUAUGGUUUGGGAGUUUCUACCAAGAGCCUUAAACUCUUGAUUACAACGCUCGCGC
As to the kind of experiment: smFRET. The following applies: 10 mM NaCl, 10 mM MgCl2; 10 mM Tris-HCl pH 8.0; 1 mM DAP.

The test system of assay [7] is L2 mutant, vector J2/3-P1 (core-P1) (RNA, riboswitch, 5-aminoallyl-U at residue 42 (aptamer numbering) and at a P1 site (position not visible)) GCGCGAGCGUUGUAUAAUCCUAAUGAAUUCCUUUGGGAGUUUCUACCAAGAGCCUUAAACUCUUGAUUACAACGCUCGCGC
The assay can be described thus: smFRET. The following applies: 10 mM NaCl, 10 mM MgCl2; 10 mM Tris-HCl pH 8.0; 1 mM DAP.

The subject of assay [8] is L2 mutant aptamer, SHAPE transcript (RNA, riboswitch) GCGCUUCAUAUAAUCCUAAUGAAUUCCUUUGGGAGUUUCUACCAAGAGCCUUAAACUCUUGAUUAUGAAGUAAUUUAUCGUCACGGUGCAUCUACCAUC
The assay can be described thus: SHAPE (NMIA) probing. To be noted: NaCl, 0-10 mM MgCl2; K-HEPES pH 8.0, 37 °C; 2 mM DAP.

Assay [9] concerns wild-type add aptamer, SHAPE transcript (RNA, riboswitch) GCGCUUCAUAUAAUCCUAAUGAUAUGGUUUGGGAGUUUCUACCAAGAGCCUUAAACUCUUGAUUAUGAAGUAAUUUAUCGUCACGGUGCAUCUACCAUC
As to the kind of experiment: SHAPE (NMIA) probing. To be noted: NaCl, 0-10 mM MgCl2; K-HEPES pH 8.0, 37 °C; 2 mM DAP.

Assay [10] has as its system L3 mutant, vector P2-P3 (L2-L3) (RNA, riboswitch, 5-aminoallyl-U at the two dye sites (underlined positions not given)) GCGCGAGCGUUGUAUAAUCCUAAUGAUAUGGUUUGGGAGUUUCUACCAAGAGGGUAUAACUCUUGAUUACAACGCUCGCGC
As to the kind of experiment: smFRET. The following applies: Na+, Mg2+ (see Figure S3); 10 mM Tris-HCl pH 8.0.

Each structure is given as a SMILES string.

For `Nc1ncnc2[nH]cnc12`, the binding result is “yes” in [1] (Na+, Mg2+ (see Figure S2), adenine concentration varied) and “yes” in assay [2] (200 mM NaCl, 3 M urea, adenine titration).

For `Nc1nc(N)c2[nH]cnc2n1`, the binding result in assay [3], in [4], in assay [5], in assay [6], in [7] and in assay [8] was “yes” in each case. Further, the binding result in [1] (10 mM Na+, no Mg2+, aptamer stays in U state without Mg2+) is recorded as “no”; in [1] (10 mM NaCl, 10 mM MgCl2, 1 mM DAP), “yes”; in assay [9], “yes”; in assay [2] (10 mM NaCl, 10 mM MgCl2, 10 mM Tris-HCl pH 8.0, 1 mM DAP, FRET same as Mg2+ alone) it was “yes”; in assay [10], “yes”.

(Values after PMC8191784 (2021).)
